Data reported in patent US8546401B2, “5,6-disubstituted oxindole-derivatives and use thereof for treating vasopressin-dependent diseases” (AbbVie Deutschland GmbH & Co. KG, priority 2007, dated 2013).

Legend:
[1] = molecular target: T1, human vasopressin V1b receptor (Homo sapiens, UniProt P47901); test: Vasopressin V1b receptor binding assay; conditions: CHO-K1 membranes, 3H-AVP displacement
T1 construct: expressed in transfected cells; host or cells: CHO-K1 (cell line hV1b_3H2_CHO), membrane preparation
T1 sequence (P47901 1-424): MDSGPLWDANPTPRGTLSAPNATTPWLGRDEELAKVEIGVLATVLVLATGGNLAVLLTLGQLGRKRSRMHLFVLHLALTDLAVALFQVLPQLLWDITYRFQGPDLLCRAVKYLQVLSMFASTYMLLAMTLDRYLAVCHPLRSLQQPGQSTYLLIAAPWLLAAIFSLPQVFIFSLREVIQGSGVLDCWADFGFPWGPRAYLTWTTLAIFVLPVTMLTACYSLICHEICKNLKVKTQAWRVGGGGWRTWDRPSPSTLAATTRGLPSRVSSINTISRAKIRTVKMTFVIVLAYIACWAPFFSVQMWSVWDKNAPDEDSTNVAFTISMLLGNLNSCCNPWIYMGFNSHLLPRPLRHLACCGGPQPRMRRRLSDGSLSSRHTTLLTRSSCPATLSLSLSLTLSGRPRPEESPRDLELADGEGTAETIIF
Procedure: 1. Vasopressin V1b Receptor Binding Assay:
The test substances were dissolved in a concentration of 10^−2 M in DMSO and further diluted to 5×10^−4 M to 5×10^−3 M. These serial DMSO predilutions were diluted 1:10 with assay buffer. The substance concentration was further diluted 1:5 in the assay mixture (2% DMSO in the mixture).
(§1) CHO-K1 cells with stably expressed human vasopressin V1b receptor (clone 3H2) were harvested and homogenized in 50 mM Tris-HCl and in the presence of protease inhibitors (Roche complete Mini #1836170) using a Polytron homogenizer at intermediate setting for 2×10 seconds, and subsequently centrifuged at 40 000×g for 1 h. The membrane pellet was again homogenized and centrifuged as described and subsequently taken up in 50 mM Tris-HCl, pH 7.4, homogenized and stored in aliquots frozen in liquid nitrogen at −190° C.
(§2) The binding assay was carried out by the method based on that of Tahara et al. (Tahara A et al., Brit. J. Pharmacol. 125, 1463-1470 (1998)).
(§3) The incubation buffer was: 50 mM Tris, 10 mM MgCl2, 0.1% BSA, pH 7.4.
In the assay mixture (250 μl), membranes (50 μg/ml protein in incubation buffer) from CHO-K1 cells with stably expressed human V1b receptors (cell line hV1b—3H2_CHO) were incubated with 1.5 nM ^3H-AVP (8-Arg-vasopressin, PerkinElmer #18479) in incubation buffer (50 mM Tris, 10 mM MgCl2, 0.1% BSA, pH 7.4) (total binding) or additionally with increasing concentrations of test substance (displacement experiment). The nonspecific binding was determined with […] (Bachem #H1780). All determinations were carried out as triplicate determinations. After incubation (60 minutes at room temperature), the free radioligand was filtered off by vacuum filtration (Skatron cell harvester 7000) through Wathman GF/B glass fiber filter mats, and the filters were transferred into scintillation vials. The liquid scintillation measurement took place in a model 2000 or 2200CA Tricarb instrument (Packard). Conversion of the measured cpm into dpm was carried out with the aid of a standard quench series.
(§4) The binding parameters were calculated by nonlinear regression in SAS. The algorithms of the program operate in analogy to the LIGAND analysis program (Munson P J and Rodbard D, Analytical Biochem. 107, 220-239 (1980)). The Kd of ^3H-AVP for the recombinant human V1b receptors is 0.4 nM and was used to determine the Ki.

[2] = molecular target: T2, human vasopressin V1a receptor (Homo sapiens, UniProt P37288); test: Vasopressin V1a receptor binding assay; conditions: selectivity quotient, human receptors
T2 construct: expressed in transfected cells; host or cells: CHO-K1 (cell line hV1a_5_CHO), membrane preparation
Procedure: 2. Vasopressin V1a Receptor Binding Assay:
The test substances were dissolved in a concentration of 10^−2 M in DMSO. Further dilution of these DMSO solutions took place in incubation buffer (50 mM Tris, 10 mM MgCl2, 0.1% BSA, pH 7.4).
as §1, with “V1a” for “V1b”, “5)” for “3H2)”
as §2, §3
In the assay mixture (250 μl), membranes (20 μg/ml protein in incubation buffer) from CHO-K1 cells with stably expressed human V1a receptors (cell line hV1a—5_CHO) were incubated with 0.04 nM ^125I-AVP (8-Arg-vasopressin, NEX 128) in incubation buffer (50 mM Tris, 10 mM MgCl2, 0.1% BSA, pH 7.4) (total binding) or additionally with increasing concentrations of test substance (displacement experiment). The nonspecific binding was determined with 1 μM AVP (Bachem #H1780). Triplicate determinations were carried out.
After incubation (60 minutes at room temperature), the free radioligand was filtered off by vacuum filtration (Skatron cell harvester 7000) through Wathman GF/B glass fiber filter mats, and the filters were transferred into scintillation vials.
The liquid scintillation measurement took place in a model 2000 or 2200CA Tricarb instrument (Packard). Conversion of the measured cpm into dpm was carried out with the aid of a standard quench series.
as §4, with “^125I-AVP” for “^3H-AVP”, “hV1a” for “human V1b”, “was determined in saturation experiments. A Kd of 1.33” for “is 0.4”, “nM” for “nM and”

human oxytocin receptors = molecular target: T3, human oxytocin receptors (Homo sapiens, UniProt P30559); test: Oxytocin receptor binding assay; conditions: selectivity quotient
T3 construct: expressed in transfected cells; host or cells: HEK-293, transient expression; lysed and homogenized cells
T3 sequence (P30559 1-389): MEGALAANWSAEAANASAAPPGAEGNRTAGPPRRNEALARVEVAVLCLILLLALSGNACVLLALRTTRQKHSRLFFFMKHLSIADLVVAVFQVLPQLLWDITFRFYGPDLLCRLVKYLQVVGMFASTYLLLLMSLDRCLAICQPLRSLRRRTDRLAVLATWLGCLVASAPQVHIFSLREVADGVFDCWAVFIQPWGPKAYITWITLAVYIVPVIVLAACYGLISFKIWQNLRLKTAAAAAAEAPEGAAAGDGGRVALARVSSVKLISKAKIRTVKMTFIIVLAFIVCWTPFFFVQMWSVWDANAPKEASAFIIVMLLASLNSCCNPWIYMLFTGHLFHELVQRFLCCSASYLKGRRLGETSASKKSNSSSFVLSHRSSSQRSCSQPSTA
Procedure: 4. Oxytocin Receptor Binding Assay
The substances were dissolved in a concentration of 10^−2 M in DMSO and diluted with incubation buffer (50 mM Tris, 10 mM MgCl2, 0.1% BSA, pH 7.4).
Confluent HEK-293 cells with transiently expressing recombinant human oxytocin receptors were centrifuged at 750×g at room temperature for 5 minutes. The residue was taken up in ice-cold lysis buffer (50 mM Tris-HCl, 10% glycerol, pH 7.4 and Roche complete protease inhibitor) and subjected to an osmotic shock at 4° C. for 20 minutes. The lyzed cells were then centrifuged at 750×g at 4° C. for 20 minutes, the residue was taken up in incubation buffer, and aliquots of 10^7 cells/ml were prepared. The aliquots were frozen at −80° C. until used.
On the day of the experiment, the cells were thawed, diluted with incubation buffer and homogenized using a Multipette Combitip (Eppendorf, Hamburg). The reaction mixture of 0.250 ml was composed of 2 to 5×10^4 recombinant cells, 3-4 nM ^3H-oxytocin (PerkinElmer, NET 858) in the presence of test substance (inhibition plot) or only incubation buffer (total binding). The nonspecific binding was determined with 10^−6 M oxytocin (Bachem AG, H2510). Triplicate determinations were set up. Bound and free radioligand were separated by filtration under vacuum with Whatman GF/B glass fiber filters with the aid of a Skatron cell harvester 7000. The bound radioactivity was determined by liquid scintillation measurement in a Tricarb Beta counter, model 2000 or 2200CA (Packard).
The binding parameters were calculated by nonlinear regression analysis (SAS) in analogy to the LIGAND program of Munson and Rodbard (Analytical Biochem 1980; 107: 220-239). The Kd of ^3H-oxytocin for the recombinant hOT receptors is 7.6 nM and was used to determine the Ki.

T2 sequence (P37288 whole entry): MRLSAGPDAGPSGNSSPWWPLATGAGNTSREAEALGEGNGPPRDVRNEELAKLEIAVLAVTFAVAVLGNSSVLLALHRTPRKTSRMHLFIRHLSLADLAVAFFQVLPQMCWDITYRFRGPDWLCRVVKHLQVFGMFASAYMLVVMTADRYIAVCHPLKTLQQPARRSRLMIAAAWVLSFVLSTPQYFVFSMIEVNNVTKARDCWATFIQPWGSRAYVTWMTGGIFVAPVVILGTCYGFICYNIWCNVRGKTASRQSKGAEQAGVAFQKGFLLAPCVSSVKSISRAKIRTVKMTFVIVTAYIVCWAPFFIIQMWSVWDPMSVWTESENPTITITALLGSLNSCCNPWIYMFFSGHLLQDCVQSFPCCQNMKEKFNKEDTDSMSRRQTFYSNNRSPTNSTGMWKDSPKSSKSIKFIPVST

| SMILES | Ki [1] [nM] | Ki(h − V1a)/Ki(h − V1b)* [2] | Ki(h − OT)/Ki(h − V1b)* (human oxytocin receptors) |
| --- | --- | --- | --- |
| CCOc1ncccc1C1(NC(=O)N2CCN(C3CCN(C)CC3)CC2)C(=O)N(S(=O)(=O)c2ccc(OC)cc2OC)c2cc(F)c(C#N)cc21 (stereo not drawn) [Example 1, 4-(1-Methylpiperidin-4-yl)piperazin-1-[5-cyano-1-(2,4-dimethoxyphenylsulfonyl)-3-(2-ethoxypyridin-3-yl)-6-fluoro-2-oxo-2,3-dihydro-1H-indol-3-yl]carboxamide] | < 1 | +++ (>75) | +++ (>75) |
| CCOc1ncccc1C1(NC(=O)N2CCN(C3CCN(CC)CC3)CC2)C(=O)N(S(=O)(=O)c2ccc(OC)cc2OC)c2cc(F)c(C#N)cc21 (stereo not drawn) [Example 2, 4-(1-Ethylpiperidin-4-yl)piperazine-1-[5-cyano-1-(2,4-dimethoxyphenylsulfonyl)-3-(2-ethoxypyridin-3-yl)-6-fluoro-2-oxo-2,3-dihydro-1H-indol-3-yl]carboxamide] | < 1 | +++ (>75) | +++ (>75) |
| CCOc1ncccc1C1(NC(=O)N2CCC(N3CCN(C)CC3)CC2)C(=O)N(S(=O)(=O)c2ccc(OC)cc2OC)c2cc(F)c(C#N)cc21 (stereo not drawn) [Example 3, 4-(4-Methylpiperazin-1-yl)piperidine-1-[5-cyano-1-(2,4-dimethoxyphenylsulfonyl)-3-(2-ethoxypyridin-3-yl)-6-fluoro-2-oxo-2,3-dihydro-1H-indol-3-yl]carboxamide] | < 1 | ++ (25-75) | +++ (>75) |
| CCOc1ncccc1C1(NC(=O)N2CCC(N3CCN(CC)CC3)CC2)C(=O)N(S(=O)(=O)c2ccc(OC)cc2OC)c2cc(F)c(C#N)cc21 (stereo not drawn) [Example 4, 4-(4-Ethylpiperazin-1-yl)piperidine-1-[5-cyano-1-(2,4-dimethoxyphenylsulfonyl)-3-(2-ethoxypyridin-3-yl)-6-fluoro-2-oxo-2,3-dihydro-1H-indol-3-yl]carboxamide] | < 1 | ++ (25-75) | +++ (>75) |
| CCOc1ncccc1C1(NC(=O)N2CCN(C3CCN(C)CC3)CC2)C(=O)N(S(=O)(=O)c2ccc(OC)cc2)c2cc(F)c(C#N)cc21 (stereo not drawn) [Example 5, 4-(1-Methylpiperidin-4-yl)piperazine-1-[5-cyano-3-(2-ethoxypyridin-3-yl)-6-fluoro-1-(4-methoxyphenylsulfonyl)-2-oxo-2,3-dihydro-1H-indol-3-yl]carboxamide] | 1 to 10 | +++ (>75) | +++ (>75) |
| CCOc1ncccc1C1(NC(=O)N2CCN(C3CCN(CC)CC3)CC2)C(=O)N(S(=O)(=O)c2ccc(OC)cc2)c2cc(F)c(C#N)cc21 (stereo not drawn) [Example 6, 4-(1-Ethylpiperidin-4-yl)piperazine-1-[5-cyano-3-(2-ethoxypyridin-3-yl)-6-fluoro-1-(4-methoxyphenylsulfonyl)-2-oxo-2,3-dihydro-1H-indol-3-yl]carboxamide] | 1 to 10 | +++ (>75) | +++ (>75) |
| CCOc1ncccc1C1(NC(=O)N2CCC(N3CCN(C)CC3)CC2)C(=O)N(S(=O)(=O)c2ccc(OC)cc2)c2cc(F)c(C#N)cc21 (stereo not drawn) [Example 7, 4-(4-Methylpiperazin-1-yl)piperidine-1-[5-cyano-3-(2-ethoxypyridin-3-yl)-6-fluoro-1-(4-methoxyphenylsulfonyl)-2-oxo-2,3-dihydro-1H-indol-3-yl]carboxamide] | 1 to 10 | + (10-<25) | +++ (>75) |
| CCOc1ncccc1C1(NC(=O)N2CCC(N3CCN(CC)CC3)CC2)C(=O)N(S(=O)(=O)c2ccc(OC)cc2)c2cc(F)c(C#N)cc21 (stereo not drawn) [Example 8, 4-(4-Ethylpiperazin-1-yl)piperidine-1-[5-cyano-3-(2-ethoxypyridin-3-yl)-6-fluoro-1-(4-methoxyphenylsulfonyl)-2-oxo-2,3-dihydro-1H-indol-3-yl]carboxamide] | 1 to 10 | ++ (25-75) | +++ (>75) |
